pEC50, pIC50: −log10 of the molar value. Converted amounts (≈) assume the structure as drawn.
Assays:
[1] = Efflux ratio of apparent permeability in human Caco2 cells at 10 uM after 2 hrs by LC-MS/MS analysis; type: ADME, cell-based; details: Caco-2
[2] = Inhibition of recombinant full-length C-terminal His6-tagged Escherichia coli DNA topoisomerase 4 subunit ParC/ParE using kinetoplast DNA as substrate preincubated for 30 mins followed by substrate addition and measured after 1 hr in presence of ATP by size exclusion chromatography
[3] = Dose normalized AUC in mouse at 5 mg/kg, po measured up to 24 hrs by LC-MS/MS analysis; type: ADME, organism-based; details: in vivo
Pseudomonas aeruginosa = experiment: Antibacterial activity against wild type Pseudomonas aeruginosa PAO1 K767 by CLSI-based broth microdilution assay; type: functional
MOLT-4 = experiment: Cytotoxicity against human MOLT4 cells assessed as reduction in cell viability after 72 hrs by Cell-titer Glo assay; type: cell-based; details: MOLT-4, 72 h
Klebsiella pneumoniae = experiment: Antibacterial activity against wild type Klebsiella pneumoniae ATCC 43816 by CLSI-based broth microdilution assay; type: functional
Escherichia coli [4] = experiment: Antibacterial activity against wild type Escherichia coli ATCC 25922 at pH 5.8 by CLSI-based broth microdilution assay; type: functional
[5] = Dark toxicity in BALB/c mouse 3T3 cells assessed as reduction in cell viability incubated for 1 hr prior to 50 mins incubation under dark condition followed by replacement of medium and measured after 24 hrs by neutral red uptake assay; type: cell-based, NIH3T3; details: BALB/c 3T3 cells
Enterobacter = experiment: Antibacterial activity against Enterobacter clinical isolates by CLSI-based broth microdilution assay; type: functional
[6] = Dose normalized Cmax in mouse at 5 mg/kg, po measured up to 24 hrs by LC-MS/MS analysis; type: ADME, organism-based; details: in vivo
Escherichia coli [7] = experiment: Ratio of MIC for antibacterial activity against wild type Escherichia coli ATCC 25922 at pH 5.8 to MIC for antibacterial activity against wild type Escherichia coli ATCC 25922 at pH 7.4; type: functional
[8] = Terminal half life in rat at 5 mg/kg, iv measured up to 24 hrs by LC-MS/MS analysis; type: ADME, organism-based; details: in vivo, read-out: beta t1/2 (converted)
[9] = Clearance in mouse at 5 mg/kg, iv or po measured up to 24 hrs by LC-MS/MS analysis; type: ADME, organism-based; details: in vivo

## Cc1c(N2CC3CC3(N)C2)c(F)cc2c(CN)c(F)c(=O)n(C3CC3)c12 (stereo not given)
[1]
  efflux ratio at 2 h, 10 µM: 1.8
[2]
  pIC50: 6.09
[3]
  AUC/dose: 0.31 µM·h/mg/kg
Pseudomonas aeruginosa
  MIC: 1 µg/mL (≈ 2.77 µM)
MOLT-4
  pEC50: 4.54
Klebsiella pneumoniae
  MIC: 0.125 µg/mL (≈ 0.347 µM)
Escherichia coli [4]
  MIC: 32 µg/mL (≈ 88.8 µM)
[5]
  IC50 at 110 min: 1000 µM
Enterobacter
  MIC: 0.06 to 32 µg/mL (≈ 0.166 to 88.8 µM)
  MIC50: 1 µg/mL (≈ 2.77 µM)
  MIC90: 8 µg/mL (≈ 22.2 µM)
[6]
  Cmax/dose: 0.1 µM/mg/kg
Escherichia coli [7]
  Ratio: 512
[8]
  half-life: 8.2 h
[9]
  clearance: 50 mL/min/kg

Source: ChEMBL document CHEMBL4616724, “Topoisomerase Inhibitors Addressing Fluoroquinolone Resistance in Gram-Negative Bacteria” (J Med Chem, 2020)
